{
  "source": "paper PMC7541675",
  "about": "(Molecular cancer therapeutics, 2020)",
  "key": {"[1]": {"assay": "Pharmacokinetic analyses of paclitaxel and sorafenib in plasma", "conditions": "paclitaxel 80 mg/m^2 IV, C1D15 (with sorafenib); for Cmax: human, iv, Cmax mean (SD)"}, "ovarian cancer": {"system": "ovarian cancer", "conditions": "cited from earlier work"}, "[2]": {"conditions": "in vivo"}, "patients": {"system": "patients", "conditions": "cited from earlier work"}, "[3]": {"system": "patients with advanced refractory solid tumors"}, "[4]": {"conditions": "200 mg BID; cited from earlier work"}, "clinical": {"assay": "clinical", "conditions": "human, in vivo; for Cmax: Cmax mean (SD); for half-life: t1/2 mean (SD)"}, "[5]": {"conditions": "paclitaxel without bevacizumab, AURELIA paclitaxel cohort"}, "[6]": {"conditions": "in combination bevacizumab plus sorafenib, previous phase I studies"}, "[7]": {"conditions": "recurrent ovarian cancer patients"}, "[8]": {"conditions": "bevacizumab added to paclitaxel, AURELIA paclitaxel cohort"}},
  "note": "Where two headings read alike, the source gives them in different places.",
  "data": [
    {"compound": "CC(=O)O[C@H]1C(=O)[C@@]2(C)[C@H]([C@H](OC(=O)c3ccccc3)[C@]3(O)C[C@H](OC(=O)[C@H](O)[C@@H](NC(=O)c4ccccc4)c4ccccc4)C(C)=C1C3(C)C)[C@]1(OC(C)=O)CO[C@@H]1C[C@@H]2O", "note": "[paclitaxel]", "values": [
      {"measurement": "Cmax", "setting": "[1]; cohort 1, sorafenib 200 mg BID 5/7, n=6", "value": 4.35, "unit": "µg/mL"},
      {"measurement": "Cmax", "setting": "[1]; cohorts 2/2 expansion, sorafenib 200 mg BID 7/7, n=13", "value": 3.48, "unit": "µg/mL"},
      {"measurement": "Cmax mean (SD)", "setting": "[1]; cohort 3, sorafenib 400 mg BID 5/7, n=2", "value": "3,804 (1306) ng/mL"},
      {"measurement": "ORR", "setting": "ovarian cancer; [5]", "value": 30.2, "unit": "%"},
      {"measurement": "OS", "setting": "ovarian cancer; [5]", "value": 13.2, "unit": "months"},
      {"measurement": "PFS", "setting": "ovarian cancer; [5]", "value": 3.9, "unit": "months"},
      {"measurement": "paclitaxel exposure with concurrent sorafenib (drug interaction)", "setting": "[2]", "value": "no significant differences"}
    ]},
    {"compound": "CNC(=O)c1cc(Oc2ccc(NC(=O)Nc3ccc(Cl)c(C(F)(F)F)c3)cc2)ccn1", "note": "[sorafenib]", "values": [
      {"measurement": "HFSR incidence expected with monotherapy", "setting": "patients; anti-VEGF monotherapy, all grades", "value": "25–50%"},
      {"measurement": "grade 3 HFSR incidence expected with monotherapy", "setting": "patients; anti-VEGF monotherapy", "value": 10, "unit": "%"},
      {"measurement": "maximum tolerated dose (MTD) of sorafenib", "setting": "patients; [6]", "value": "200 mg twice daily (BID)"},
      {"measurement": "Median number of cycles before sorafenib dose reduction to 200 mg QD 5/7", "setting": "[3]; human, in vivo", "value": 3, "unit": "cycles"},
      {"measurement": "Patients needing further sorafenib dose reduction to 200 mg QOD", "setting": "[3]; human, in vivo", "value": 21, "unit": "%"},
      {"measurement": "Patients on study ≥ 4 months who had sorafenib dose reductions", "setting": "[3]; human, in vivo", "value": 76, "unit": "%"},
      {"measurement": "Patients requiring further sorafenib dose reduction to 200 mg QD 5/7", "setting": "[3]; human, in vivo", "value": 62, "unit": "%"},
      {"measurement": "Recommended phase II dose (RP2D)", "setting": "[3]; human, in vivo", "value": 200, "unit": "mg BID 5/7"},
      {"measurement": "Maximum tolerated dose (MTD)", "setting": "[3]; sorafenib oral, with bevacizumab 5 mg/kg Q2W and paclitaxel 80 mg/m^2 QW x 3 every 4 weeks", "value": 200, "unit": "mg BID 7/7"},
      {"measurement": "ORR, single agent", "setting": "ovarian cancer; [7]", "value": 3, "unit": "%"},
      {"measurement": "OS, single agent", "setting": "ovarian cancer; [7]", "value": 16, "unit": "months"},
      {"measurement": "PFS, single agent", "setting": "ovarian cancer; [7]", "value": 2, "unit": "months"},
      {"measurement": "ORR", "setting": "ovarian cancer; sorafenib dosed sequentially with topotecan, TRIAS randomized phase II, platinum-resistant ovarian cancer", "value": 31, "unit": "%"},
      {"measurement": "PFS", "setting": "ovarian cancer; sorafenib dosed sequentially with topotecan, TRIAS, p=0.002", "value": 6.7, "unit": "months"},
      {"measurement": "OS", "setting": "ovarian cancer; sorafenib dosed sequentially with topotecan, TRIAS, p=0.017", "value": 17, "unit": "months"},
      {"measurement": "AUC0–8, historical values with sorafenib alone", "setting": "[4]", "value": "6,000–16,000 ng*h/mL"},
      {"measurement": "t1/2 mean (SD)", "setting": "[2]; human, po", "value": "6.5 (2.2) h"},
      {"measurement": "AUC0–8 mean (SD)", "setting": "[2]; human, po, 200 mg", "value": "14,911 (8,174) ng*hr/mL"},
      {"measurement": "Cmax mean (SD)", "setting": "[2]; human, po, 200 mg", "value": "4,539 (2,333) ng/mL"},
      {"measurement": "Cmax", "setting": "clinical; po, 200 mg", "value": 2.75, "unit": "µg/mL"},
      {"measurement": "AUC(0-t)", "setting": "clinical; po, 400 mg, AUC0–8 mean (SD)", "value": 23, "unit": "µg·h/mL"},
      {"measurement": "Cmax", "setting": "clinical; po, 400 mg", "value": 3.83, "unit": "µg/mL"},
      {"measurement": "half-life", "setting": "clinical; po, 400 mg", "value": 7.8, "unit": "h"},
      {"measurement": "half-life", "setting": "clinical; po", "value": 4, "unit": "h"},
      {"measurement": "AUC(0-t)", "setting": "clinical; sorafenib AUC0–8 in non-responders", "value": 17.3, "unit": "µg·h/mL"},
      {"measurement": "AUC(0-t)", "setting": "clinical; sorafenib AUC0–8 in responders", "value": 38.1, "unit": "µg·h/mL"}
    ]},
    {"compound": "CC[C@@]1(O)C(=O)OCc2c1cc1n(c2=O)Cc2cc3c(CN(C)C)c(O)ccc3nc2-1", "note": "[topotecan]", "values": [
      {"measurement": "OS", "setting": "ovarian cancer; topotecan alone, TRIAS", "value": 10, "unit": "months"},
      {"measurement": "PFS", "setting": "ovarian cancer; topotecan alone, TRIAS", "value": 4.4, "unit": "months"}
    ]},
    {"compound": "bevacizumab", "values": [
      {"measurement": "HTN incidence expected with monotherapy", "setting": "patients; human, in vivo", "value": "15–30%"},
      {"measurement": "maximum tolerated dose (MTD) of bevacizumab", "setting": "patients; [6]", "value": 5, "unit": "mg/kg Q2W"},
      {"measurement": "PFS", "setting": "ovarian cancer; bevacizumab added to chemotherapy, AURELIA, p<0.001", "value": 6.7, "unit": "months"},
      {"measurement": "OS", "setting": "ovarian cancer; bevacizumab added to chemotherapy, AURELIA, p=0.174", "value": 16.6, "unit": "months"},
      {"measurement": "ORR", "setting": "ovarian cancer; [8]", "value": 53.3, "unit": "%"},
      {"measurement": "OS", "setting": "ovarian cancer; [8]", "value": 22.4, "unit": "months"},
      {"measurement": "PFS", "setting": "ovarian cancer; [8]", "value": 10.4, "unit": "months"},
      {"measurement": "ORR, single agent", "setting": "ovarian cancer; [7]", "value": 20, "unit": "%"},
      {"measurement": "OS, single agent", "setting": "ovarian cancer; [7]", "value": 17, "unit": "months"}
    ]}
  ]
}
